Results: US6893627B2, “Method for treating type 2 diabetes with an extract of Artemisia” (Rutgers, The State University of New Jersey, priority 2001, dated 2005)

Tested on: Streptozotocin (STZ)-treated mice
Experiment: Blood glucose lowering in Streptozotocin (STZ)-treated mice
Assay type: in vivo
Conditions: insulin 1 IU/kg subcutaneously
Description: The efficacy of the Artemisia dracunculus extract was evaluated in Streptozotocin (STZ)-treated mice. STZ induces diabetes by destroying most, if not all, of the beta cells of the pancreas, leaving the animals with little or no insulin production and severe hyperglycemia [Hisashi, et al., European Journal of Pharmacology, 87:237-243 (1983)]. […] Mice were treated with STZ as described by Hisashi et al., European Journal of Pharmacology, 87:237-243 (1983). A 500 mg/kg dose of Artemisia dracunculus extract was administered daily by oral gavage to STZ-treated mice for a period of 7 days. Additionally, a dose of insulin (1 IU/kg) was administered. subcutaneously to STZ-treated mice, while 20 ml/kg of vehicle only (0.9% NaCl or 2% Tween 80 in distilled water) was administered to STZ-treated mice, as a control. […] Regardless of mechanism, however, the results establish that plant extracts, such as the mildly polar ethanolic extract of A. dracunculus, can be orally administered in a dose effective in lowering blood glucose levels.

insulin
reduction in blood glucose concentrations: 42%
